Reference: PMC5085626, “Characterization of a β-Adrenergic-Like Octopamine Receptor in the Oriental Fruit Fly, Bactrocera dorsalis (Hendel)” (International Journal of Molecular Sciences, 2016)
Counter-ions that a name gives are not always drawn.

Columns and labels:
DmOctβR1 [1] = test system: DmOctβR1; parameters: method as in PMID 15998303; conditions: DmOctβR1 in Drosophila; cited from earlier work
BdOctβR1 [2] = molecular target: T1, BdOctβR1 (Bactrocera dorsalis, UniProt A0ABM3J3U4); assay: Agonist cAMP response assay (GloSensor luminescence) of BdOctβR1 transiently expressed in HEK-293 cells; assay type: cell-based; conditions: for EC50: BdOctβR1 in HEK-293 cells, cAMP luminescence, read-out: median effective concentration (EC50)
Source text: A 10-fold serial dilution of the ligands octopamine, tyramine, dopamine, naphazoline, and phentolamine was applied to the cells. […] The authentic ligand octopamine was selected as the model ligand for normalization of the luminescence. A concentration–response curve was generated for each receptor by logistic fitting in Origin 8.6 (OriginLab, Northampton, MA, USA) as previously reported.

[3] = test system: empty pcDNA3.1 vector-transfected HEK-293 cells; assay: Negative control: cAMP luminescence in empty pcDNA3.1 vector-transfected HEK-293 cells; assay type: cell-based; conditions: ligands at 1.00 × 10^−6 M
AmOctβR1 = test system: AmOctβR1; parameters: method as in PMID 24266860; conditions: AmOctβR1 of A. mellifera; cited from earlier work
DmOctβR1 [4] = test system: DmOctβR1; parameters: method as in PMID 15998303; conditions: DmOctβR1 of D. melanogaster; cited from earlier work
BdOctβR1 [5] = molecular target: T1, BdOctβR1; assay: cell-based
Procedure: (§1) For the cAMP response assays, we used the non-lytic GloSensor cyclic AMP assay kit (Promega) for monitoring intracellular cAMP in live cells. At the same time, the empty pcDNA3.1 vector was transfected in HEK-293 cells as a negative control. The methods for transient expression of BdOctβR1 in HEK-293 cells and procedures for the assays were followed as previously described [41, 42, 43, 44]. Thirty hours after the transfection, the cells were collected and preincubated with 1% GloSensor substrate in HEK-293 cells (Invitrogen) before the test. Ligands being tested were plated in each well of the 96-well plate. As described previously, the cells were injected into a well, and the changes in luminescence were monitored [45].
(§2) The antagonist assay was examined with serial dilutions of antagonists in the transfected cells on a luminescence detection systems (Berthold Technologies). Basically, the antagonistic activity assay was conducted in 2 sequential treatments. In the 1st treatment, various concentrations of ligands (50 μL in volume) were plated in each well, including a solvent (DMEM, Dulbecco’s modified Eagle’s medium) as control. Following the injection of the cells into the well, a 30-min incubation with the tested ligands was conducted. Subsequently, the 2nd treatment was conducted. The cells were treated with 1.00 × 10^−6 M octopamine, which was the minimum concentration inducing the maximal activity, and the luminescent response was measured. For the assays, the cells treated with DMEM in both the 1st and 2nd treatment were set as background. The cells were treated with DMEM in the 1st treatment, while 1.00 × 10^−6 M octopamine in the 2nd treatment, without adding any antagonist, served as positive control. Relative luminescence of ligand was normalized to the largest positive control response in each plate (1.00 × 10^−6 M octopamine) after background subtractions [43]. The values calculated in the treatment were used to construct the inhibitor concentration–response curves. […]

BdOctβR1 [6] = molecular target: T1, BdOctβR1
Procedure: as §1, §2

T1 sequence (A0ABM3J3U4 entry or part of it): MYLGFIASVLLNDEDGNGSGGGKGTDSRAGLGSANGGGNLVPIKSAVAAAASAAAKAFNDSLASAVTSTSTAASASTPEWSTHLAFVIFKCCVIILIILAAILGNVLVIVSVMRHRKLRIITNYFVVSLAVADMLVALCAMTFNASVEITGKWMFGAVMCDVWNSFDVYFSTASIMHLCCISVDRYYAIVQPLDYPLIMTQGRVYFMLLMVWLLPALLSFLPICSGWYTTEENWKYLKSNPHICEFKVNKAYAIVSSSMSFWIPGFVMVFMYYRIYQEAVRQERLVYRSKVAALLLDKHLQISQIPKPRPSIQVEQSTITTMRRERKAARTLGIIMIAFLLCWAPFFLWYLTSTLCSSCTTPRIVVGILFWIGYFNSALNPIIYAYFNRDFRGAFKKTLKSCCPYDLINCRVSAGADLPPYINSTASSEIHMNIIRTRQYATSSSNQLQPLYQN

## CN1CCN2c3ccccc3Cc3ccccc3C2C1 (centres unmarked) [mianserin, mianserin hydrochloride]
DmOctβR1 [1]
  antagonistic activity (in words): blocked

## NCCc1ccc(O)c(O)c1 [dopamine, dopamine hydrochloride]
BdOctβR1 [2]
  EC50: 3320 nM

## NCC(O)c1ccc(O)cc1 (racemic) [octopamine, (±)-octopamine hydrochloride]
[3]
  effect on cAMP luminescence / cAMP production in empty-vector cells: not
AmOctβR1
  EC50: 43.9 nM
BdOctβR1 [2]
  EC50: 0.911 nM
DmOctβR1 [4]
  EC50: 5.56 nM

## NCCc1ccc(O)cc1 [tyramine, Tyramine hydrochloride]
[3]
  effect on cAMP luminescence / cAMP production in empty-vector cells: not
BdOctβR1 [2]
  EC50: 19.7 nM

## CN(C)CCCN1c2ccccc2Sc2ccc(Cl)cc21 [chlorpromazine, chlorpromazine hydrochloride]
BdOctβR1 [5]
  IC50: 2660 nM
BdOctβR1 [6]
  antagonistic activity (in words): weak antagonistic activity
DmOctβR1 [1]
  antagonistic activity (in words): ineffective

## Cc1ccc(N(CC2=NCCN2)c2cccc(O)c2)cc1 [phentolamine, phentolamine hydrochloride]
BdOctβR1 [2]; HEK293, at 1.00 × 10^−5 M, normalized to octopamine at 1 × 10^−5 M (=100%), read-out: agonistic effect (relative cAMP luminescence)
  Emax at 10 µM: ~20%
BdOctβR1 [5]
  IC50: 3800 nM

## c1ccc2c(CC3=NCCN3)cccc2c1 [naphazoline, naphazoline hydrochloride]
BdOctβR1 [2]
  EC50: 0.635 nM
